Laboratory results published in DBAASP.
Values after ≈ are worked out from the molar mass of the structure shown.

Legend:
Test in all cases: ≥ marks a high value that may be exact or a test limit, other limits are often not marked, values filed in µg/mL are converted to µM
[1] = system: Escherichia coli D31
[2] = system: Pseudomonas aeruginosa ATCC 10145
[3] = system: Salmonella enterica subsp. enterica serovar Typhimurium ATCC 700931
[4] = system: Staphylococcus aureus ATCC 27660
[5] = system: Staphylococcus epidermidis ATCC 14990
[6] = system: Escherichia coli NBRC 3972
[7] = system: Pseudomonas aeruginosa NBRC 13275
[8] = system: Staphylococcus aureus NBRC 13276
[9] = system: Bacillus magaterium AB90008
[10] = system: Enterobacter cloacae AB2010162
[11] = system: Escherichia coli DH5alpha
[12] = system: Micrococcus luteus AB2010179
[13] = system: Pseudomonas fluorescens
[14] = system: Pseudomonas putida
[15] = system: Salmonella enterica AB2010185
[16] = system: Staphylococcus aureus AB94004

## CC(C)C[C@H](NC(=O)[C@H](C)N)C(=O)N[C@@H](Cc1c[nH]c2ccccc12)C(=O)N[C@@H](CCCCN)C(=O)N[C@@H](CCCCN)C(=O)N[C@@H](CC(C)C)C(=O)N[C@@H](CC(C)C)C(=O)N[C@@H](CCCCN)C(=O)N[C@@H](CCCCN)C(=O)N[C@@H](CC(C)C)C(=O)N[C@@H](CC(C)C)C(=O)N[C@@H](CCCCN)C(=O)N[C@@H](CO)C(=O)N[C@@H](C)C(=O)N[C@@H](CCCCN)C(=O)N[C@@H](CCCCN)C(=O)N[C@@H](CC(C)C)C(=O)NCC(=O)O [ALWKKLLKKLLKSAKKLG]
[1]
  MIC: 0.94 µM (≈ 1.94 µg/mL)
[2]
  MIC: 1.88 µM (≈ 3.89 µg/mL)
[3]
  MIC: 1.88 µM (≈ 3.89 µg/mL)
[4]
  MIC: 1.88 µM (≈ 3.89 µg/mL)
[5]
  MIC: 0.94 µM (≈ 1.94 µg/mL)

## CC(=O)N[C@@H](CCCCN)C(=O)N[C@@H](CCCCN)C(=O)NCC(=O)N[C@@H](CCCCN)C(=O)N[C@@H](CCCCN)C(=O)NCC(=O)N[C@@H](CCCCN)C(=O)N[C@@H](CCCCN)C(=O)NCC(N)=O [KKGKKGKKG]
[6]
  MIC: ≥ 800 µM
[7]
  MIC: ≥ 800 µM
[8]
  MIC: ≥ 800 µM

## CC[C@H](C)[C@H](N)C(=O)N[C@@H](CC(C)C)C(=O)NCC(=O)N[C@@H](CCCCN)C(=O)N[C@H](C(=O)N[C@@H](Cc1c[nH]c2ccccc12)C(=O)N[C@@H](CCCCN)C(=O)NCC(=O)N[C@H](C(=O)N[C@@H](CCCCN)C(=O)N[C@@H](CC(N)=O)C(=O)N[C@H](C(=O)N[C@@H](CC(C)C)C(N)=O)[C@@H](C)CC)[C@@H](C)CC)[C@@H](C)CC [ILGKIWKGIKNIL]
[9]
  MIC: ≥ 50 µM
[10]
  MIC: ≥ 82 µM
[11]
  MIC: ≥ 82 µM
[12]
  MIC: 2 µM (≈ 2.99 µg/mL)
[13]
  MIC: ≥ 32 µM
[14]
  MIC: 16 µM (≈ 23.9 µg/mL)
[15]
  MIC: ≥ 35 µM
[16]
  MIC: 12 µM (≈ 17.9 µg/mL)

## CC(C)[C@H](NC(=O)[C@H](C)N)C(=O)N[C@@H](Cc1c[nH]c2ccccc12)C(=O)N[C@@H](CCCCN)C(=O)N[C@@H](CCCCN)C(=O)N[C@H](C(=O)N[C@H](C(=O)N[C@@H](CCCCN)C(=O)N[C@@H](CCCCN)C(=O)N[C@H](C(=O)N[C@H](C(=O)N[C@@H](CCCCN)C(=O)N[C@@H](CO)C(=O)N[C@@H](C)C(=O)N[C@@H](CCCCN)C(=O)N[C@@H](CCCCN)C(=O)N[C@H](C(=O)NCC(=O)O)C(C)C)C(C)C)C(C)C)C(C)C)C(C)C [AVWKKVVKKVVKSAKKVG]
[1]
  MIC: 3.75 µM (≈ 7.43 µg/mL)
[2]
  MIC: 7.5 µM (≈ 14.9 µg/mL)
[3]
  MIC: 7.5 µM (≈ 14.9 µg/mL)
[4]
  MIC: 7.5 µM (≈ 14.9 µg/mL)
[5]
  MIC: 7.5 µM (≈ 14.9 µg/mL)
